# Columns and labels:
# Assay type in all cases: cell-based
# [1] = system: LOU-NH91 cells (human lung squamous cell carcinoma cells); assay: Proliferation assay (alamarBlue) with LOU-NH91 cells; settings: for Activity Range (weighted arithmetic mean AVEw of normalized fluorescence intensity, relative to DMSO basis level 1.0): 20 μM; for Activity Range (weighted arithmetic mean of normalized fluorescence intensity, relative to DMSO basis level 1.0): control at 40 μM
# Description: (§1) The antiproliferative activities of compounds falling under formula (Ia), (Ib) and (Ic), respectively, were investigated on cells or cell lines originating from a disorder of the haematopoietic system, including the myeloid cell compartment and the lymphoid cell compartment (T-cells and B-cells), the neuroendocrine system, the cervix, the breast, the ovaries, the lung, the gastrointestinal tract, and the mucosal epithelium, as well as from the skin epithelium and from the muscle. To this end, HL-60 cells, NB-4 cells, HH cells, RPMI-8402 cells, TANOUE cells, TT cells, HeLa cells, MDA-MB-231 cells, FU-OV-1 cells, LOU-NH91 cells, 23132/87 cells, CAL-27 cells, BHY cells, SCC-25 cells, A-431 cells, human primary epidermal keratinocytes (HPEK), and C2C12 cells were seeded into 96-well plates suitable for fluorescence assays (CORNING #3598) at following initial cell numbers: 1000 cells per well for HL-60; 1000 cells per well for NB-4; 5000 cells per well for HH; 5000 cells per well for RPMI-8402; 1500 cells per well for TANOUE; 9000 cells per well for TT; 2000 cells per well for HeLa; 3000 cells per well for MDA-MB-231; 3000 cells per well for FU-OV-1; 4000 cells per well for LOU-NH91; 2000 cells per well for 23132/87; 2000 cells per well for CAL-27; 1500 cells per well for BHY; 1500 cells per well for SCC-25; 700 cells per well for A-431; 1000 cells per well for HPEK; 500 cells per well for C2C12. The cells were treated with compounds at indicated final concentrations (diluted from the 1000× stock-solutions in DMSO to a final DMSO concentration of 0.1% v/v in H2O (Water For Injection, WFI, Fisherscientific #10378939)) or with the empty carrier DMSO at 0.1% v/v as control for 5 days. At day 5 after starting the treatments the cells were subjected to the alamarBlue® Proliferation Assay (Bio-Rad Serotec GmbH, BUF012B) according to the protocol of the manufacturer. The readout was taken with a multi-well plate-reader in the fluorescence mode with applying a filter for excitation at 560 nm (band width 10 nm) and for emission at 590 nm (band width 10 nm). Control treatments for growth inhibition with commercial compounds such as Methotrexate (MTREX) and Resveratrol (RES) were included on every plate. Some of the test compounds of the present invention were obtained and applied as their salts. According cases are indicated in the column “Specification” in Table 55 to Table 92 and by their sum formula in Table 93.
# (§2) The assays were performed in duplicate or more replicates of independent single experiments each containing a six-fold replicate for every condition. For every individual plate, the measured fluorescence intensity values of the conditions with compound treatment were normalized against the corresponding equally weighted arithmetic mean of the fluorescence intensity values of the six DMSO treated control wells in order to obtain the relative values to a baseline level of 1.0.
# (§3) Two independent outlier analyses were performed according to the methods by Peirce and Chauvenet (Ross, Journal of Engineering Technology 2003, 1-12). Outliers confirmed by at least one of the methods were excluded from the calculations but not more than one value out of six per compound within a single experiment. The weighted arithmetic mean (here abbreviated as AVEw) for each compound was calculated from the normalized values over all independent replicates of the single experiments comprising the six replicates each. The corresponding standard deviation for the weighted arithmetic mean was calculated according to the method described by Bronstein et al. (Bronstein, Semendjajew, Musiol, Müihlig, Taschenbuch der Mathematik, 5th edition 2001 (German), publisher: Verlag Harri Deutsch, Frankfurt am Main and Thun) and was combined with the Gauß' error propagation associated with the performed calculation for the normalization. The resulting standard deviation is herein referred to as “combined standard deviation”. […]
# [2] = system: NB-4 cells (human acute promyelocytic leukemia cells); assay: Proliferation assay (alamarBlue) with NB-4 cells
# Description: as §1, §2, §3
# [3] = system: HH cells (human cutaneous T-cell lymphoma cells); assay: Proliferation assay (alamarBlue) with HH cells
# Description: as §1, §2, §3
# [4] = system: HL-60 cells (human acute myeloid leukemia cells); assay: Proliferation assay (alamarBlue) with HL-60 cells
# Description: as §1, §2, §3
# [5] = system: C2C12 cells (murine myoblast cells); assay: Proliferation assay (alamarBlue) with C2C12 cells
# Description: (§4) The antiproliferative activities of compounds falling under formula (Ia), (Ib) and (Ic), respectively, were investigated on cells or cell lines originating from a disorder of the haematopoietic system, including the myeloid cell compartment and the lymphoid cell compartment (T-cells and B-cells), the neuroendocrine system, the cervix, the breast, the ovaries, the lung, the gastrointestinal tract, and the mucosal epithelium, as well as from the skin epithelium and from the muscle. To this end, HL-60 cells, NB-4 cells, HH cells, RPMI-8402 cells, TANOUE cells, TT cells, HeLa cells, MDA-MB-231 cells, FU-OV-1 cells, LOU-NH91 cells, 23132/87 cells, CAL-27 cells, BHY cells, SCC-25 cells, A-431 cells, human primary epidermal keratinocytes (HPEK), and C2C12 cells were seeded into 96-well plates suitable for fluorescence assays (CORNING #3598) at following initial cell numbers: 1000 cells per well for HL-60; 1000 cells per well for NB-4; 5000 cells per well for HH; 5000 cells per well for RPMI-8402; 1500 cells per well for TANOUE; 9000 cells per well for TT; 2000 cells per well for HeLa; 3000 cells per well for MDA-MB-231; 3000 cells per well for FU-OV-1; 4000 cells per well for LOU-NH91; 2000 cells per well for 23132/87; 2000 cells per well for CAL-27; 1500 cells per well for BHY; 1500 cells per well for SCC-25; 700 cells per well for A-431; 1000 cells per well for HPEK; 500 cells per well for C2C12. […] The readout was taken with a multi-well plate-reader in the fluorescence mode with applying a filter for excitation at 560 nm (band width 10 nm) and for emission at 590 nm (band width 10 nm). […]
# as §2, with “1.0. […]” for “1.0.”
# [6] = system: MDA-MB-231 cells (human breast carcinoma cells); assay: Proliferation assay (alamarBlue) with MDA-MB-231 cells; settings: compound at 20 μM
# Description: as §1, §2, §3
# [7] = system: human epidermal keratinocyte progenitors (HPEKp, pooled); assay: Proliferation assay (alamarBlue) with HPEKp cells
# Description: as §4
# as §2, with “1.0. […]” for “1.0.”
smiles,measurement,setting,value
"Oc1ccc(C=Cc2cc(O)cc(O)c2)cc1 [RES, Resveratrol]","Activity Range (weighted arithmetic mean AVEw of normalized fluorescence intensity, relative to DMSO basis level 1.0)",[1]; Table 73 (novel compounds),0.9 ± 0.1
same,"Activity Range (weighted arithmetic mean AVEw of normalized fluorescence intensity, relative to DMSO basis level 1.0)",[1]; Table 74 (compounds disclosed in PCT/EP2018/054686),0.9 ± 0.1
same,"Activity Range (weighted arithmetic mean of normalized fluorescence intensity, relative to DMSO basis level 1.0)",[1]; Table 73,0.7 ± 0.0
same,"Activity Range (weighted arithmetic mean of normalized fluorescence intensity, relative to DMSO basis level 1.0)",[1]; Table 74,0.7 ± 0.0
same,"Activity Range: weighted arithmetic mean (AVEw) of normalized fluorescence intensity, proliferation assay with NB-4 cells","[2]; 20 μM, relative to DMSO basis level 1.0, Table 57 (novel compounds)",0.1 ± 0.0
same,"Activity Range: weighted arithmetic mean (AVEw) of normalized fluorescence intensity, proliferation assay with NB-4 cells","[2]; 20 μM, relative to DMSO basis level 1.0, Table 58 (compounds disclosed in PCT/EP2018/054686)",0.1 ± 0.0
same,"Activity Range: weighted arithmetic mean (AVEw) of normalized fluorescence intensity, proliferation assay with NB-4 cells","[2]; control at 40 μM, relative to DMSO basis level 1.0, Table 57",0.0 ± 0.0
same,"Activity Range: weighted arithmetic mean (AVEw) of normalized fluorescence intensity, proliferation assay with NB-4 cells","[2]; control at 40 μM, relative to DMSO basis level 1.0, Table 58",0.0 ± 0.0
same,"Activity Range: weighted arithmetic mean (AVEw) of normalized fluorescence intensity, proliferation assay with HH cells","[3]; 20 μM, relative to DMSO basis level 1.0, Table 59 (novel compounds)",0.6 ± 0.1
same,"Activity Range: weighted arithmetic mean (AVEw) of normalized fluorescence intensity, proliferation assay with HH cells","[3]; control at 40 μM, relative to DMSO basis level 1.0, Table 59",0.4 ± 0.1
same,"Activity Range: weighted arithmetic mean (AVEw) of normalized fluorescence intensity, proliferation assay with HH cells","[3]; control at 40 μM, relative to DMSO basis level 1.0, Table 60",0.4 ± 0.1
same,"Activity Range: weighted arithmetic mean (AVEw) of normalized fluorescence intensity, proliferation assay with HL-60 cells","[4]; 20 μM, relative to DMSO basis level 1.0, Table 55 (novel compounds)",0.4 ± 0.1
same,"Activity Range: weighted arithmetic mean (AVEw) of normalized fluorescence intensity, proliferation assay with HL-60 cells","[4]; 20 μM, relative to DMSO basis level 1.0, Table 56 (compounds disclosed in PCT/EP2018/054686)",0.4 ± 0.1
same,"Activity Range: weighted arithmetic mean (AVEw) of normalized fluorescence intensity, proliferation assay with HL-60 cells","[4]; control at 40 μM, relative to DMSO basis level 1.0, Table 55",0.2 ± 0.1
same,"Activity Range: weighted arithmetic mean (AVEw) of normalized fluorescence intensity, proliferation assay with HL-60 cells","[4]; control at 40 μM, relative to DMSO basis level 1.0, Table 56",0.2 ± 0.1
same,"Activity Range: weighted arithmetic mean (AVEw) of normalized fluorescence intensity, relative to DMSO basis level of 1.0",[5]; compounds and controls at 20 μM,0.8 ± 0.0
same,"Activity Range: weighted arithmetic mean (AVEw) of normalized fluorescence intensity, relative to DMSO basis level of 1.0",[5]; control at 40 μM,0.2 ± 0.1
same,activity at 20 µM,"[6]; Homo sapiens, Table 69 (novel compounds), read-out: Activity Range: weighted arithmetic mean (AVEw) of normalized fluorescence intensity relative to DMSO basis level 1.0",60%
same,Activity Range: weighted arithmetic mean (AVEw) of normalized fluorescence intensity relative to DMSO basis level 1.0,[6]; Table 70 (compounds of PCT/EP2018/054686),0.6 ± 0.0
same,"Activity Range: weighted arithmetic mean (AVEw) of normalized fluorescence intensity, relative to DMSO basis level of 1.0",[7]; control at 20 μM,0.2 ± 0.0
same,"Activity Range: weighted arithmetic mean (AVEw) of normalized fluorescence intensity, relative to DMSO basis level of 1.0",[7]; control at 40 μM,0.2 ± 0.0

# From patent publication US20220354949A1, “NOVEL COMPOUNDS” (XENIOPRO GmbH, priority 2018, published 2022)
